The numbers were not newly measured in patent US20100160366A1, “TREATMENT METHOD” (Schering Corporation, priority 2000, published 2010), which cites them from elsewhere.

The subject of one data set is allergic immune cells. The note with it: allergic immune cells in vitro.

In the case of `CCOC(=O)N1CCC(=C2c3ccc(Cl)cc3CCc3cccnc32)CC1` [loratadine], the “adhesion molecule ICAM-1 expression” value in the data set with ICAM-1 is “reduced”. In addition, in the data set on eosinophils, the activity of eosinophils entry is given as “inhibited” and the chemotaxis of eosinophils entry is listed as “inhibited”. Moreover, the “inflammatory cytokine IL-6” value with IL-6 was “inhibited”. Besides, in the data set on monocytes, the “activation of monocytes as measured by superoxide anion production” value is on record as “reduced”. Further, in the data set on allergic immune cells, the “release of mast cell histamine” value is given as “inhibit” and the “release of the cysteinyl leukotriene LTC4” value was “inhibit”.
